# Source: article PMC6403271, “Characterization, mechanism of action and optimization of activity of a novel peptide-peptoid hybrid against bacterial pathogens involved in canine skin infections” (Scientific Reports, 2019)
# “Also recorded” adds a separate entry of the source. Where two headings read alike, the source gives them in different places. Square brackets hold non-standard residues; d marks the D form. Peptide text beside a SMILES is read from it. N(1-naphthylmethyl)Gly = O=C(O)CNCc1cccc2ccccc12; 2Nal = N[C@@H](Cc1ccc2ccccc2c1)C(=O)O; d1Nal = N[C@H](Cc1cccc2ccccc12)C(=O)O; N(4-MeBn)Gly = Cc1ccc(CNCC(=O)O)cc1; dNle = CCCC[C@@H](N)C(=O)O; Nle = CCCC[C@H](N)C(=O)O; NBuGly = CCCCNCC(=O)O
# Assays:
# human red blood cells = type: cell-based; settings: for EC50: red cells of human, 1 h
# [1] = type: cell-based, human; settings: human
# [2] = system: Enterococcus faecalis, 27404; type: cell-based; settings: 27404, 18 h
# Description: (§1) For antibacterial spectrum the following strains were used: Corynebacterium auriscanis, 31551, (54 C6, dog, ear, 2013); Enterococcus faecalis, 27404, (17 C7, dog, wound, 2011); Enterococcus faecium, 30951, (24 C1, dog, ear, 2013); Streptococcus canis, 26740-1, (14 H1, dog, ear, 2010); Staphylococcus aureus, 27266, (16 G9, dog, skin, 2010); Staphylococcus aureus, 27266, (16 G9, dog, skin, 2010); Staphylococcus pseudintermedius 22963, (3 B9, dog, 2007). Acinetobacter baumannii, 27065, (16 D1, dog, wound, 2010); E. coli, 30235, 23 A6, dog, wound, 2012; Klebsiella pneumoniae, 26233, (11 H5, dog, wound, 2010); Pasteurella canis, 31096, (24 C8, dog, skin, 2013); Proteus mirabilis, 25178, (9 A4, dog, ear, 2009); Pseudomonas aeruginosa 26314, 12 C5, dog, urine, 2010). MIC determination was performed by broth microdilution according to the Clinical and Laboratory Standard Institute (CLSI, […]-A3, 2008)[62]. In brief, each bacterial strain was diluted to concentration of 5 × 10^5 CFU/mL in Mueller Hinton broth II (MHB II) media (Oxoid) and added to a two-fold serial dilution of peptides and peptide-peptoid hybrids concentrations ranging from 1 to 64 μg/ml in 96-well plates (Nunc Internationals, Rochester, NY). The MICs were determined as a lowest concentration showing no visible growth after incubation for 18 hours at 37 °C. Experiments were performed in triplicates on two different days.
# [3] = system: Streptococcus canis, 26740-1; type: cell-based; settings: 18 h
# Description: as §1
# Pasteurella canis, 31096 = type: cell-based
# Description: as §1
# [4] = system: Acinetobacter baumannii, 27065; type: cell-based; settings: 27065, 18 h
# Description: as §1
# Proteus mirabilis, 25178 = type: cell-based; settings: 25178, 18 h
# Description: as §1
# [5] = system: Klebsiella pneumoniae, 26233; type: cell-based; settings: 26233, 18 h
# Description: as §1
# [6] = system: Corynebacterium auriscanis, 31551; type: cell-based; settings: 18 h
# Description: as §1
# [7] = system: Enterococcus faecium, 30951; type: cell-based; settings: 30951, 18 h
# Description: as §1
# P. aeruginosa 26314 = assay: Time-kill kinetics, P. aeruginosa 26314; type: cell-based, Pseudomonas aeruginosa
# Method: Time kill assays were performed in triplicate, meaning that every value is the average of three different samplings. Time–kill kinetic assays were performed using P. aeruginosa (26314), MRSP E104 and/or MRSP C22963 to determine the cell killing activity of B1 and two of its most promising analogues (compounds 23 and 26) based on prior antimicrobial susceptibility testing. The method reported by Blondeau et al.[63] was followed with minor modifications. […] After 0, 15, 30, 60, 120, 180 and 300 min of growth, 100 μL aliquots were collected and 10-fold serially diluted. Twenty μL of cell suspension from each dilution were spotted in triplicate on blood agar plates followed by 16–18 h incubation at 37 °C and determination of colony forming units (CFU).
# P. aeruginosa (26314) = type: cell-based, Pseudomonas aeruginosa
# Procedure, shortened: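 Canine clinical isolate P. aeruginosa 26314 tested by CLSI broth microdilution at 5 × 10^5 CFU/mL in Mueller Hinton broth II against 2-fold peptide dilutions of 1-64 μg/ml. MIC = lowest concentration without visible growth after 18 h at 37 °C; triplicates on two days.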
Compound,Haemolysis EC10 (human red blood cells) [µM],EC50 (human red blood cells) [µM],"hemolysis at 1 h, 150 µM [1] [%]",MIC Enterococcus faecalis [2] [µg/mL],MIC Streptococcus canis [3] [µg/mL],"MIC Pasteurella canis (Pasteurella canis, 31096; 31096, 24 C8, dog, skin, 2013) [µg/mL]",MIC Acinetobacter baumannii [4] [µg/mL],"MIC Proteus mirabilis (Proteus mirabilis, 25178) [µg/mL]",MIC Klebsiella pneumoniae [5] [µg/mL],MIC Corynebacterium auriscanis [6] [µg/mL],MIC Enterococcus faecium [7] [µg/mL],complete killing of P. aeruginosa (P. aeruginosa 26314; up to highest tested concentration (8x MIC)),Minimum Inhibitory Concentration P. aeruginosa (26314) (P. aeruginosa (26314); Table 1) [µg/mL],"MIC Pasteurella canis (Pasteurella canis, 31096; 18 h) [µg/mL]","killing of P. aeruginosa 26314 (P. aeruginosa 26314; 1x MIC, delayed re-growth)",time to kill P. aeruginosa 26314 (P. aeruginosa 26314; 2x MIC) [h],time to kill P. aeruginosa 26314 (P. aeruginosa 26314; 4x MIC) [h],time to kill P. aeruginosa (P. aeruginosa 26314; 8 x MIC),"Minimum Inhibitory Concentration P. aeruginosa (26314) (P. aeruginosa (26314); 26314, 18 h) [µg/mL]"
"CCCC[C@H](NC(=O)[C@H](CCCCN)NC(=O)[C@H](CCCCN)NC(=O)[C@@H](N)CCCCN)C(=O)N[C@@H](Cc1ccc2ccccc2c1)C(=O)N[C@@H](Cc1ccccc1)C(=O)N[C@@H](Cc1ccc2ccccc2c1)C(N)=O [Compound 23, Lys-Lys-Lys-Nle-(2-Nal)Ala-Phe-(2-Nal)Ala] (H-KKK[Nle][2Nal]F[2Nal]-NH2)",14,104,59,>64,16,> 64,64,>64,>64,8,64,not able to completely kill; also recorded: not able to eliminate,8,–,–,–,–,–,–
"CCCC[C@@H](NC(=O)[C@H](CCCCN)NC(=O)[C@H](CCCCN)NC(=O)[C@@H](N)CCCCN)C(=O)N[C@H](Cc1cccc2ccccc12)C(=O)N[C@H](Cc1ccccc1)C(=O)N[C@H](Cc1cccc2ccccc12)C(N)=O [Compound 26, Lys-Lys-Lys-nle-(1-Nal)ala-phe-(1-Nal)ala] (H-KKK[dNle][d1Nal][dF][d1Nal]-NH2; N-terminus assumed)",–,63,56,64,>64,> 64,>64,>64,>64,32,>64,–,8,–,–,–,–,–,–
"CCCCN(CC(=O)N[C@@H](CCCCN)C(=O)N(CC(=O)N(CC(=O)N(CC(N)=O)Cc1cccc2ccccc12)Cc1ccc(C)cc1)Cc1cccc2ccccc12)C(=O)[C@H](CCCCN)NC(=O)[C@@H](N)CCCCN [B1, Lys-Lys-(NBu)Gly-Lys-(N1-Nal)Gly-(N4-MeBn)Gly-(N1-Nal)Gly] (H-KK[NBuGly]K[N(1-naphthylmethyl)Gly][N(4-MeBn)Gly][N(1-naphthylmethyl)Gly]-NH2)",64,230,32,64,4,–,64,>64,>64,4,16,–,–,8,did not eliminate,24,2,less than 30 min,8 to 16
